One data set has as its system damaged cardiac tissue. The data set can be described thus: Ratio of activity in damaged vs normal cardiac tissue of rats (Table II). The following applies: isoproterenol-damaged rats vs control rats; 60 minutes after injection. The format is in vivo, rat. How it is done: The heart was excised, cut open, and blotted. […] Other organs were also dissected and weighed.
Control animals (animals not injected with isoproterenol) were also injected with several ^99m Tc complexes.

For data set [1] the following is noted: rat, in vivo, iv, 1 h.
Description: (§1) The dosage used was proportional to the weight of the rats (30 mg isoproterenol hydrochloride/kilogram of body weight).
(§2) After five hours, the animals were injected with 50 μl (~1 mCi) of the above radioactive solution via the tail vein. The animals were killed by cervical dislocation 60 minutes after the injection of the technetium complex. The heart was excised, cut open, and blotted. Heart tissue was then washed with isotonic saline solution and weighed. Other organs were also dissected and weighed. The amount of radiation in each tissue was quantitatively determined using a NaI scintillation counter. Fifty μl standards of the complex solution were also counted. […] The levels are expressed as a percent of the original dose of radioactivity which was taken up by the tissue or fluid (blood).
The next data set has as its system infarcts. The following applies: cited from earlier work.
For data set [2] the following is noted: in vivo; cited from earlier work.
A short description of data set [3]: Tissue distribution of Tc-99m agents in rats with isoproterenol-induced heart damage (Table I). Particulars: 60 minutes after i.v. (tail vein) injection.
Description: as §1, §2

“Also recorded” adds a separate entry of the source. Like-named read-outs stand apart in the source and are kept apart here.

The values that follow come from patent US4582698A, “Process for imaging cardiac infarcts” (The Dow Chemical Company, priority 1983, dated 1986).

Consider `O=P([O-])([O-])OP(=O)([O-])[O-].[99Tc]` [Pyrophosphate, ^99m Tc-pyrophosphate], for which the “% Dose/gram in Damaged Heart/% Dose/gram in Normal Heart” value with damaged cardiac tissue was determined as 21.4. Moreover, in data set [1], the “% Dose/g of Tissue (Fluid), Blood” value was determined as 0.182 % Dose/g; the “% Dose/g of Tissue (Fluid), Liver” value was 0.131 % Dose/g; the “% Dose/g of Tissue (Fluid), Muscle” value stood at 0.026 % Dose/g. Moreover, the “infarct to bone ratio” value with infarcts (compared to other ^99m Tc bone seeking agents) is recorded as “relatively high”. In addition, the “detection of recent infarcts” value in the data set with infarcts (in vivo) is recorded as “inability to detect recent infarcts”. In the data set with infarcts (ribs and sternum / overlying skeletal structures), the “interference from skeletal structures in infarct imaging” value was “less interference from the ribs and sternum; also recorded: interference due to uptake in overlying skeletal structures”. The blood clearance result in data set [2] is listed as “relatively slow”.

In the case of `O.O.O=P([O-])([O-])CP(=O)([O-])[O-].[99Tc+4]` [Methylenediphosphonate, ^99m Tc-methylenediphosphonate], in the data set with damaged cardiac tissue, the “% Dose/gram in Damaged Heart/% Dose/gram in Normal Heart” value is given as 20.5. Further, in the data set on infarcts (in vivo), the accumulation in infarcts result is listed as “shown to accumulate in infarcts”. The “% Dose/g of Tissue (Fluid), Blood” value in data set [3] (blood) is 0.051 % Dose/g. Further, the “% Dose/g of Tissue (Fluid), Liver” value in data set [3] (liver) turned out to be 0.060 % Dose/g. In addition, the “% Dose/g of Tissue (Fluid), Muscle” value in data set [3] (muscle) came out at 0.018 % Dose/g.

In the case of ^99m Tc-hydroxyethylenediphosphonate, the accumulation in infarcts result in the data set with infarcts (in vivo) was “shown to accumulate in infarcts”.

For ^99m Tc-glucoheptonate, the accumulation in infarcts result in the data set on infarcts (in vivo) is recorded as “shown to accumulate in infarcts”.
